In patent publication US20110195030A1, “NANOPARTICLE COMPOSITIONS COMPRISING LIQUID OIL CORES” (The University of North Carolina at Chapel Hill, priority 2008, published 2011):
Converted amounts (≈) assume the structure as drawn.

Columns and labels:
[1] = In-vitro release of paclitaxel by dialysis method; format: physicochemical; details: 37° C., PBS with 0.1% Tween 80
Protocol: PX release studies (n=4) were completed at 37° C. by the dialysis method using PBS with 0.1% Tween 80 as release medium. Before release studies, the solubility of PX in release medium was measured. Briefly, extra amounts of paclitaxel were added into 2 mL of release medium until saturation was attained. After centrifuge, the concentration of PX in the supernatant was determined by HPLC as described above. For release studies, one milliliter (1 mL) of PX G78 NPs was purified with a Microcon Y-100 and re-suspended into 1 mL D.I. water. The concentration of PX in re-suspended PX G78 NPs was measured by HPLC as described above. Eight hundred microliters of purified PX G78 NPs, PX BTM NPs and reconstituted lyo BTM NPs were placed into a regenerated cellulose dialysis membrane (MWCO 8000 Da) submerged in 40 mL PBS with 0.1% Tween 80, respectively, and then shaken in a water bath at a speed of 150 rpm at 37° C. Free PX also was used as a control. At predetermined times, 200 μL aliquots were taken from outside of the dialysis membrane, and replaced with 200 μL fresh media. PX was measured by HPLC as described above. Mass balance was confirmed by measuring PX concentration inside the dialysis membranes after 72 h. In addition, the particle sizes of PX NPs inside the dialysis membranes were measured when release studies were terminated (at 72 h).

Solubility of paclitaxel = format: physicochemical; details: PBS with 0.1% Tween 80 (release medium), aqueous with cosolvent or surfactant or cyclodextrin, thermodynamic from solid; PBS with 0.1% Tween 80, room temperature, mean ± SD, n = 3
[2] = reported in literature; cited from earlier work

time to complete release [1]: ≤ 4 h | solubility (Solubility of paclitaxel): 10.8 ± 0.3 µg/mL (≈ 12.6 µM)
Compound: CC(=O)O[C@H]1C(=O)[C@@]2(C)[C@H]([C@H](OC(=O)c3ccccc3)[C@]3(O)C[C@H](OC(=O)[C@H](O)[C@@H](NC(=O)c4ccccc4)c4ccccc4)C(C)=C1C3(C)C)[C@]1(OC(C)=O)CO[C@@H]1C[C@@H]2O [Paclitaxel]
aqueous solubility [2]: 0.7 to 30 µg/mL
